Laboratory results: ChEMBL document CHEMBL4321854, “Discovery of a First-in-Class Mitogen-Activated Protein Kinase Kinase 1/2 Degrader” (J Med Chem, 2019)
Activity calls are given as the source filed them. The calls are words filed in the database; no cut-off is given here.

Key:
[1] = biological target: T1, von Hippel-Lindau disease tumor suppressor/Dual specificity mitogen-activated protein kinase kinase 2 (Homo sapiens) (UniProt P36507+P40337); test: Protac activity against VHL/MEK2 in human SK-MEL-28 cells harboring with BRAF V600E variant assessed as degradation of MEK2 by measuring MEK2 protein level at 0.3 uM pretreated with proteasome inhibitor, MG-132 for 2 hrs followed by incubation with compound for 10 hrs by Western blot analysis; format: cell-based
[2] = biological target: T2, von Hippel-Lindau disease tumor suppressor/Dual specificity mitogen-activated protein kinase kinase 2/Dual specificity mitogen-activated protein kinase kinase 1 (Homo sapiens) (UniProt P36507+Q02750+P40337); test: Protac activity against VHL/MEK1/2 in human HT-29 cells harboring with BRAF V600E variant assessed as reduction in phosphorylation of ERK at T202/Y204 residues at 0.1 to 0.3 uM by Western blot analysis; format: cell-based; settings: TDE = time-dependent effect
[3] = biological target: T1, von Hippel-Lindau disease tumor suppressor/Dual specificity mitogen-activated protein kinase kinase 2 (Homo sapiens); test: Protac activity against VHL/MEK2 in human COLO205 cells harboring with BRAF V600E variant assessed as degradation of MEK2 at 3 to 5 uM after 24 hrs by Western blot analysis; format: cell-based
[4] = biological target: T2, von Hippel-Lindau disease tumor suppressor/Dual specificity mitogen-activated protein kinase kinase 2/Dual specificity mitogen-activated protein kinase kinase 1 (Homo sapiens); test: Protac activity against VHL/MEK1/2 in human HT-29 cells harboring with BRAF V600E variant assessed as phosphorylation of ERK at T202/Y204 residues at 0.3 uM pretreated with NEDD8-activating enzyme inhibitor, MLN4924 for 2 hrs followed by incubation with compound for 10 hrs by Western blot analysis; format: cell-based
[5] = biological target: von Hippel-Lindau disease tumor suppressor/Dual specificity mitogen-activated protein kinase kinase 2 (Homo sapiens, UniProt P36507+P40337, V600E); test: (§1) Protac activity against VHL/MEK2 in human SK-MEL-28 cells harboring BRAF V600E variant assessed as degradation of MEK2 after 24 hrs by Western blot analysis; format: cell-based
[6] = biological target: T1, von Hippel-Lindau disease tumor suppressor/Dual specificity mitogen-activated protein kinase kinase 2 (Homo sapiens); test: as §1; format: cell-based
[7] = biological target: T3, von Hippel-Lindau disease tumor suppressor/Dual specificity mitogen-activated protein kinase kinase 1 (Homo sapiens) (UniProt Q02750+P40337); test: Protac activity against VHL/MEK1 in human SK-MEL-28 cells harboring with BRAF V600E variant assessed as degradation of MEK1 by measuring reduction in MEK1 protein level at 0.3 uM after 8 hrs by Western blot analysis relative to control; format: cell-based; set-up: scale not given: the % may be the effect or the level left
[8] = system: UACC-257; test: Antiproliferative activity against human UACC257 cells assessed as reduction in cell growth after 3 days by MTT assay; format: functional
[9] = biological target: T1, von Hippel-Lindau disease tumor suppressor/Dual specificity mitogen-activated protein kinase kinase 2 (Homo sapiens); test: Protac activity against VHL/MEK2 in human HT-29 cells harboring with BRAF V600E variant assessed as degradation of MEK2 by measuring MEK2 protein level at 0.3 uM pretreated with proteasome inhibitor, MG-132 for 2 hrs followed by incubation with compound for 10 hrs by Western blot analysis; format: cell-based
[10] = biological target: T2, von Hippel-Lindau disease tumor suppressor/Dual specificity mitogen-activated protein kinase kinase 2/Dual specificity mitogen-activated protein kinase kinase 1 (Homo sapiens); test: Protac activity against VHL/MEK1/2 in human HT-29 cells harboring with BRAF V600E variant assessed as reduction in phosphorylation of MEK at S218/222 residues after 24 hrs by Western blot analysis; format: cell-based
[11] = biological target: T1, von Hippel-Lindau disease tumor suppressor/Dual specificity mitogen-activated protein kinase kinase 2 (Homo sapiens); test: Protac activity against VHL/MEK2 in human SK-MEL-28 cells harboring with BRAF V600E variant assessed as degradation of MEK2 at 0.1 to 0.3 uM after 4 hrs by Western blot analysis; format: cell-based
[12] = biological target: T3, von Hippel-Lindau disease tumor suppressor/Dual specificity mitogen-activated protein kinase kinase 1 (Homo sapiens); test: Protac activity against VHL/MEK1 in human SK-MEL-28 cells harboring with BRAF V600E variant assessed as degradation of MEK1 by measuring MEK1 protein level at 0.3 uM pretreated with NEDD8-activating enzyme inhibitor, MLN4924 for 2 hrs followed by incubation with compound for 10 hrs by Western blot analysis; format: cell-based
[13] = biological target: T2, von Hippel-Lindau disease tumor suppressor/Dual specificity mitogen-activated protein kinase kinase 2/Dual specificity mitogen-activated protein kinase kinase 1 (Homo sapiens); test: Protac activity against VHL/MEK1/2 in human HT-29 cells harboring with BRAF V600E variant assessed as phosphorylation of MEK at S218/222 residues at 0.3 uM pretreated with VHL ligand, VH 032 for 2 hrs followed by incubation with compound for 10 hrs by Western blot analysis; format: cell-based
[14] = biological target: von Hippel-Lindau disease tumor suppressor/Cullin-9 (Homo sapiens) (UniProt P40337+Q8IWT3); test: Protac activity against VHL/cullin9 in human HT-29 cells harboring with BRAF V600E variant assessed as cullin9 protein level at 0.1 uM after 10 hrs by Western blot analysis; format: cell-based
[15] = biological target: T3, von Hippel-Lindau disease tumor suppressor/Dual specificity mitogen-activated protein kinase kinase 1 (Homo sapiens); test: Protac activity against VHL/MEK1 in human HT-29 cells harboring with BRAF V600E variant assessed as degradation of MEK1 by measuring MEK1 protein level at 0.3 uM pretreated with NEDD8-activating enzyme inhibitor, MLN4924 for 2 hrs followed by incubation with compound for 10 hrs by Western blot analysis; format: cell-based
[16] = biological target: T3, von Hippel-Lindau disease tumor suppressor/Dual specificity mitogen-activated protein kinase kinase 1 (Homo sapiens); test: (§2) Protac activity against VHL/MEK1 in human UACC257 cells harboring BRAF V600E variant assessed as degradation of MEK1 after 24 hrs by Western blot analysis; format: cell-based
[17] = biological target: T4, von Hippel-Lindau disease tumor suppressor/Dual specificity mitogen-activated protein kinase kinase 1 (Homo sapiens, UniProt Q02750+P40337, V600E); test: as §2; format: cell-based
[18] = biological target: T3, von Hippel-Lindau disease tumor suppressor/Dual specificity mitogen-activated protein kinase kinase 1 (Homo sapiens); test: Protac activity against VHL/MEK1 in human HT-29 cells harboring with BRAF V600E variant assessed as degradation of MEK1 by measuring MEK1 protein level at 0.3 uM pretreated with VHL ligand, VH 032 for 2 hrs followed by incubation with compound for 10 hrs by Western blot analysis; format: cell-based
[19] = system: HT-29; test: Antiproliferative activity against human HT-29 cells assessed as reduction in cell growth after 3 days by MTT assay; format: functional
[20] = biological target: T3, von Hippel-Lindau disease tumor suppressor/Dual specificity mitogen-activated protein kinase kinase 1 (Homo sapiens); test: (§3) Protac activity against VHL/MEK1 in human HT-29 cells harboring BRAF V600E variant assessed as degradation of MEK1 after 24 hrs by Western blot analysis; format: cell-based
[21] = biological target: T4, von Hippel-Lindau disease tumor suppressor/Dual specificity mitogen-activated protein kinase kinase 1; test: as §3; format: cell-based
[22] = biological target: T2, von Hippel-Lindau disease tumor suppressor/Dual specificity mitogen-activated protein kinase kinase 2/Dual specificity mitogen-activated protein kinase kinase 1 (Homo sapiens); test: Protac activity against VHL/MEK1/2 in human SK-MEL-28 cells harboring with BRAF V600E variant assessed as in phosphorylation of MEK at S218/222 residues at 0.3 uM pretreated with VHL ligand, VH 032 for 2 hrs followed by incubation with compound for 10 hrs by Western blot analysis; format: cell-based
[23] = biological target: T3, von Hippel-Lindau disease tumor suppressor/Dual specificity mitogen-activated protein kinase kinase 1 (Homo sapiens); test: Protac activity against VHL/MEK1 in human HT-29 cells harboring with BRAF V600E variant assessed as degradation of MEK1 at 0.3 uM after 3 to 144 hrs by Western blot analysis; format: cell-based
[24] = biological target: T3, von Hippel-Lindau disease tumor suppressor/Dual specificity mitogen-activated protein kinase kinase 1 (Homo sapiens); test: Protac activity against VHL/MEK1 in human SK-MEL-28 cells harboring with BRAF V600E variant assessed as degradation of MEK1 by measuring MEK1 protein level at 0.3 uM pretreated with VHL ligand, VH 032 for 2 hrs followed by incubation with compound for 10 hrs by Western blot analysis; format: cell-based
[25] = biological target: T1, von Hippel-Lindau disease tumor suppressor/Dual specificity mitogen-activated protein kinase kinase 2 (Homo sapiens); test: Protac activity against VHL/MEK2 in human HT-29 cells harboring with BRAF V600E variant assessed as degradation of MEK2 at 0.1 to 0.3 uM by Western blot analysis; format: cell-based; settings: TDE = time-dependent effect
[26] = biological target: T3, von Hippel-Lindau disease tumor suppressor/Dual specificity mitogen-activated protein kinase kinase 1 (Homo sapiens); test: Protac activity against VHL/MEK1 in human UACC257 cells harboring with BRAF V600E variant assessed as degradation of MEK1 at 3 to 5 uM uM after 24 hrs by Western blot analysis; format: cell-based
[27] = biological target: T2, von Hippel-Lindau disease tumor suppressor/Dual specificity mitogen-activated protein kinase kinase 2/Dual specificity mitogen-activated protein kinase kinase 1 (Homo sapiens); test: Protac activity against VHL/MEK1/2 in human COLO205 cells harboring with BRAF V600E variant assessed as reduction in phosphorylation of MEK at S218/222 residues after 24 hrs by Western blot analysis; format: cell-based

T3 sequence (P40337 whole entry, looked up): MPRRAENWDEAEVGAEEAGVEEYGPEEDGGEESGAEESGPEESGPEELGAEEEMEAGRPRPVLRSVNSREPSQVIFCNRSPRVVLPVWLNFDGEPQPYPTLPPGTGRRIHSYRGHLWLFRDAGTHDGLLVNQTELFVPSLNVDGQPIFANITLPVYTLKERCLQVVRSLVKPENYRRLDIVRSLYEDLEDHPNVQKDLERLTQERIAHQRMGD
T3 sequence (Q02750 whole entry, looked up): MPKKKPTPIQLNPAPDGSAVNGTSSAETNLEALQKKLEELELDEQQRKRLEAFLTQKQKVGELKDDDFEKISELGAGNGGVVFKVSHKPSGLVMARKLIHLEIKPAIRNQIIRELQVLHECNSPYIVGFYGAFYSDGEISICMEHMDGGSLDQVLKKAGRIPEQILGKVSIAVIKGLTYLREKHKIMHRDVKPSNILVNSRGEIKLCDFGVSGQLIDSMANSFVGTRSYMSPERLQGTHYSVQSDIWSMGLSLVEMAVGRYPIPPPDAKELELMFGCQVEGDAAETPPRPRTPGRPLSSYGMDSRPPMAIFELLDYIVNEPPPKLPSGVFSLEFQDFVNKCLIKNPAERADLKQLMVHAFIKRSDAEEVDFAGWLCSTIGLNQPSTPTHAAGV
T1 sequence (P36507 whole entry, looked up): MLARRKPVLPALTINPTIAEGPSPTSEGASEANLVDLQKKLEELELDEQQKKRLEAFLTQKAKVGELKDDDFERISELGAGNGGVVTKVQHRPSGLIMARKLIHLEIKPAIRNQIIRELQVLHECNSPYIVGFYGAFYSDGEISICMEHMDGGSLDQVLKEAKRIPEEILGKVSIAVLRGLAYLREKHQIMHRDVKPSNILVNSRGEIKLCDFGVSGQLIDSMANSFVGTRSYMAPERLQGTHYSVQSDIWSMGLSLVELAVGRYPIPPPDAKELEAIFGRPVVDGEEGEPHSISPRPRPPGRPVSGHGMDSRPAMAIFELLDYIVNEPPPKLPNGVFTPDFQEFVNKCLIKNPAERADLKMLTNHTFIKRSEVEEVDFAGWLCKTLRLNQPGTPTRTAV
T1 sequence (P40337 whole entry, looked up): as the sequence (P40337 whole entry, looked up) above
T2 sequence (P36507 whole entry, looked up): as the sequence (P36507 whole entry, looked up) above
T2 sequence (P40337 whole entry, looked up): as the sequence (P40337 whole entry, looked up) above
T2 sequence (Q02750 whole entry, looked up): as the sequence (Q02750 whole entry, looked up) above
T4 sequence (P40337 whole entry, looked up, stated change not applied): as the sequence (P40337 whole entry, looked up) above
T4 sequence (Q02750 whole entry, looked up, stated change not applied): as the sequence (Q02750 whole entry, looked up) above
Sequence of von Hippel-Lindau disease tumor suppressor/Cullin-9 (Homo sapiens) (P40337 whole entry, looked up): as the sequence (P40337 whole entry, looked up) above
Sequence of von Hippel-Lindau disease tumor suppressor/Cullin-9 (Homo sapiens) (Q8IWT3 whole entry, looked up): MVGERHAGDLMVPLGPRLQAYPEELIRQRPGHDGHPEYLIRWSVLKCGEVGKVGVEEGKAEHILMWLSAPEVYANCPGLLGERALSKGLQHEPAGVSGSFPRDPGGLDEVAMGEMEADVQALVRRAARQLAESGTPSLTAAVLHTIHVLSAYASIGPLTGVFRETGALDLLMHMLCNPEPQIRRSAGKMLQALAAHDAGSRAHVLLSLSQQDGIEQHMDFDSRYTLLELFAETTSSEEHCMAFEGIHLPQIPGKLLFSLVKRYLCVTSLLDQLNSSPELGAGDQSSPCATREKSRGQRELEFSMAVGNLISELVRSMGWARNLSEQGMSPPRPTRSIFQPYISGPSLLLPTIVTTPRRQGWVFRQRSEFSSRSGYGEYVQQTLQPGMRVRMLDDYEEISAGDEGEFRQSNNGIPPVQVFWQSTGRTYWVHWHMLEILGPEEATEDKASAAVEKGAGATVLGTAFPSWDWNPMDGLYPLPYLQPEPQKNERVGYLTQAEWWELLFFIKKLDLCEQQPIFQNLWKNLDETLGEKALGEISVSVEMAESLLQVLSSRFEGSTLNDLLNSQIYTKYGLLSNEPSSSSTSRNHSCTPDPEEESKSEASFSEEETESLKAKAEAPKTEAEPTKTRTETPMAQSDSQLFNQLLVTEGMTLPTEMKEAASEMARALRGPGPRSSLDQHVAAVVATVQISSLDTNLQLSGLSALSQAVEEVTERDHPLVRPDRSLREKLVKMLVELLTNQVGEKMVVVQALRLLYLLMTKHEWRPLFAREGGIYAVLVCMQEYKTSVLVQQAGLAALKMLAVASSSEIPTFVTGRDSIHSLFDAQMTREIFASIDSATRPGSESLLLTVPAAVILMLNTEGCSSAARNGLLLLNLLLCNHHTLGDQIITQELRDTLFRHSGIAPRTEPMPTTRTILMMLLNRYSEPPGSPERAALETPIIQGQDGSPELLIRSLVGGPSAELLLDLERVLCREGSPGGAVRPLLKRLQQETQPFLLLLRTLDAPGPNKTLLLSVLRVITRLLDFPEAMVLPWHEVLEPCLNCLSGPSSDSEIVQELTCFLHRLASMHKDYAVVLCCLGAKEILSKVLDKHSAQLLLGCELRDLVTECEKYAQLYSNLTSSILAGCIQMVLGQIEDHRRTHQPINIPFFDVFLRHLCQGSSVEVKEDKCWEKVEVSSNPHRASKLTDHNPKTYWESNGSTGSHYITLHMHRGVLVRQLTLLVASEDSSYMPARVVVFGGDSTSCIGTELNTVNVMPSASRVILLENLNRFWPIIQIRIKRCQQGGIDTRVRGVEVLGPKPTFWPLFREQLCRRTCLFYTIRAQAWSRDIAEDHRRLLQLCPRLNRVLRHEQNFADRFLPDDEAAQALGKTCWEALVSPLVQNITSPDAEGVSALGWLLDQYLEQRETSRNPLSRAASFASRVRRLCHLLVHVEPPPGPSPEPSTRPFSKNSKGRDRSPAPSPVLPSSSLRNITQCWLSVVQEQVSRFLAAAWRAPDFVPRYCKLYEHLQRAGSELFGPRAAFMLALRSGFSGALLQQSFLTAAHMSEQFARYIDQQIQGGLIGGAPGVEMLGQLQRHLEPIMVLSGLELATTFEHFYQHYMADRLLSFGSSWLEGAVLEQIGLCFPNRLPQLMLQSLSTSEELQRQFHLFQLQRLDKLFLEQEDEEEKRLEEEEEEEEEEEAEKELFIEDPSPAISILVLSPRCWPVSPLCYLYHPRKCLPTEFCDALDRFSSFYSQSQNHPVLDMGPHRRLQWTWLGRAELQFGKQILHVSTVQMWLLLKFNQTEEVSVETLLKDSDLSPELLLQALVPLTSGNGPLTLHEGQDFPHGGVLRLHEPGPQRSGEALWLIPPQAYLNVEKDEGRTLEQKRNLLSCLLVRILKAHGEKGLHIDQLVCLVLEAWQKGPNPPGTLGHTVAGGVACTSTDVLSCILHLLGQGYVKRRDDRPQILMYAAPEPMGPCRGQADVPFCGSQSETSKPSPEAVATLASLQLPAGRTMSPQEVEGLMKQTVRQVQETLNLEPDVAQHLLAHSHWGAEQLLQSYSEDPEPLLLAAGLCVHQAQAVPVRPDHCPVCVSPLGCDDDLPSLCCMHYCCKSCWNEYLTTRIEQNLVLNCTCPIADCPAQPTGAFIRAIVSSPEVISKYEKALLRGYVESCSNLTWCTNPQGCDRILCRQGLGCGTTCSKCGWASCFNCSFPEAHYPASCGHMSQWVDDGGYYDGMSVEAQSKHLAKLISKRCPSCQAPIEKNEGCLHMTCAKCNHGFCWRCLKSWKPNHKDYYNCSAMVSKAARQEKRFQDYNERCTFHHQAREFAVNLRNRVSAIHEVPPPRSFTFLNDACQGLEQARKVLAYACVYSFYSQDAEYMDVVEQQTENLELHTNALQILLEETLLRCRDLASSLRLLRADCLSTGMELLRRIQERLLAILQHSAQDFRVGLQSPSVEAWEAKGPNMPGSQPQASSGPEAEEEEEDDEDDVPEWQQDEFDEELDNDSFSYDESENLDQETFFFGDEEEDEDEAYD

Cc1ncsc1-c1ccc([C@H](C)NC(=O)[C@@H]2C[C@@H](O)CN2C(=O)[C@@H](NC(=O)CCCCCCCCCCNCCCONC(=O)c2ccc(F)c(F)c2Nc2ccc(I)cc2F)C(C)(C)C)cc1
Activity [1]: inactive
Activity [2]: Tde
Activity [3]: Active
Activity [4]: inactive
DC50 [5]: 0.0093 µM
Activity [6]: Dose-dependent effect
Activity [7]: > 80%
growth inhibition (GI) [8]: Dose-dependent effect
GI50 ([8]; UACC-257, 72 h): 0.03 to 0.2 µM
Activity [9]: inactive
Activity [10]: Dose-dependent effect
Activity [11]: Active
Activity [12]: inactive
Activity [13]: inactive
Activity [14]: inactive
Activity [15]: inactive
Activity [16]: Dose-dependent effect
DC50 [17]: 0.056 µM
Activity [18]: inactive
growth inhibition (GI) [19]: Dose-dependent effect
GI50 ([19]; HT-29, 72 h): 0.13 µM
Activity [20]: Dose-dependent effect
DC50 [21]: 0.031 µM
Activity [22]: inactive
Activity [23]: Active
Activity [24]: inactive
Activity [25]: Tde
Activity [26]: Active
Activity [27]: Dose-dependent effect
